Measurements as given in US20050129782A1, “Use of inorganic nanoparticles to stabilize hydrogen peroxide solutions” (Alcon, Inc., priority 2003, published 2005).

Legend:
[1] = Stability of 3% hydrogen peroxide solutions with stabilizing agents, heated at 100° C. for 24 hours, KMnO4 titration (Example 1); format: physicochemical; conditions: 3% H2O2, phosphate buffer pH 6.5, 100° C. 24 hours vs 25° C.
Procedure: 3% hydrogen peroxide solutions containing three different stabilizing agents were formulated in phosphate buffer at pH 6.5. 10 ml samples were heated in HCl-cleaned test tubes at 100° C. for 24 hours to simulate a two year shelf life. Then a 200 microliter aliquot was added to 40 ml of a 2.75% H2SO4 solution and titrated with 0.01N KMnO4.

[2] = Stability of 100 ppm H2O2 at various pHs, heated at 100° C. for 24 hours, KMnO4 titration (Example 3); format: physicochemical; conditions: 60 ppm Dequest 2060 (control); 100 ppm H2O2, pH 6.5; 100° C. 24 hours vs RT
Procedure: The effectiveness of 50 ppm Laponite® XLG to stabilize 100 ppm H2O2 at various pH levels was evaluated.
50 ppm Laponite® XLG was formulated in a phosphate buffer (0.8655% NaCl, 0.0622% sodium phosphate dibasic, 0.0072% sodium phosphate monobasic monohydrate), along with 100 ppm hydrogen peroxide (from a 30% unstabilized solution). 100 mL samples were then adjusted to pH levels of 6.5, 7.0 and 7.5, respectively. 10 mL of each sample was then placed in a test tube, sealed with a screw cap, and heated to 100° C. for 24 hours. After heating, 5 mL of each sample was titrated with 0.002% KMnO4 and compared to the unheated sample to obtain % stability. 60 ppm of Dequest® 2060 at pH 6.5 was used as a control.

Row | SMILES | % Stability of H2O2 ([1]; stabilizer 180 ppm) | % stability [2] | % Stability of H2O2 ([1]; stabilizer 500 ppm)
1 | O=P(O)(O)CN(CCN(CP(=O)(O)O)CP(=O)(O)O)CCN(CP(=O)(O)O)CP(=O)(O)O [Dequest ® 2060] | 98.2% | 92.9% | –
2 | O=C(O)CN(CCN(CC(=O)O)CC(=O)O)CC(=O)O [EDTA] | – | – | 24.8%
